Experimental data reported in ChEMBL document CHEMBL1143974, “Synthesis and cyclooxygenase inhibitory activities of linear 1-(methanesulfonylphenyl or benzenesulfonamido)-2-(pyridyl)acetylene regioisomers” (Bioorg Med Chem, 2008).

Tests used:
[1] = molecular target: T1, Prostaglandin G/H synthase 1 (Ovis aries, UniProt P05979); assay: Inhibition of ovine COX1 by enzyme immuno assay
T1 sequence (P05979 whole entry): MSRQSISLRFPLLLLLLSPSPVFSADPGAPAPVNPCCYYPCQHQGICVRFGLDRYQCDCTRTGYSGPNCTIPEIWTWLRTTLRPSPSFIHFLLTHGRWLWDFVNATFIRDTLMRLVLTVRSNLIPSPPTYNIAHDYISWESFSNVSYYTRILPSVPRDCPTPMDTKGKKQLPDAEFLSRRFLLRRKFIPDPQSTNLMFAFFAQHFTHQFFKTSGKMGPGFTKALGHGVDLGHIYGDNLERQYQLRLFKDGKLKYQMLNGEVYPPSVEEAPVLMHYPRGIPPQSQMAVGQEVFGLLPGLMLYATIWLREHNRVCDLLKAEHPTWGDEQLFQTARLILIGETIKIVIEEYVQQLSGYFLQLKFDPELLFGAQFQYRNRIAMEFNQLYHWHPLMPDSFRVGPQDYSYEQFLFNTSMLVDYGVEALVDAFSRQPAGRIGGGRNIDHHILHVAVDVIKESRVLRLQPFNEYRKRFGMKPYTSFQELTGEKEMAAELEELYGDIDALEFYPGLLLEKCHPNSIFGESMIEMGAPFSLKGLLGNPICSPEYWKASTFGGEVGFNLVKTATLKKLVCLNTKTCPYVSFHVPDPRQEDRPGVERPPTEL

Rattus norvegicus = assay: Antiinflammatory activity against carrageenan-induced foot paw edema in orally dosed rat after 3 hrs; format: functional; conditions: po, read-out: ID50 (the source's name)
Ovis aries = species on record: Ovis aries; assay: Selectivity index, ratio of IC50 for ovine COX1 to IC50 for ovine COX2

Molecule `CS(=O)(=O)c1cccc(C#Cc2ccccn2)c1` has an IC50 [1] of 31.6 µM and an ED50 (Rattus norvegicus) of 76.4 mg/kg.
For `Cc1cccnc1C#Cc1ccc(S(C)(=O)=O)cc1`, the IC50 [1] was over 100 µM.
`CS(=O)(=O)c1ccc(C#Cc2ccccn2)cc1` was tested, and the IC50 [1] was 31.7 µM.
Molecule `NS(=O)(=O)c1ccc(C#Cc2ccccn2)cc1` has an IC50 [1] of 9.3 µM.
Work on `Cc1cccnc1C#Cc1ccccc1S(C)(=O)=O` yielded an IC50 [1] of 2 µM.
With `CS(=O)(=O)c1ccccc1C#Cc1ccccn1` the IC50 [1] was 0.28 µM.
With `Cc1cccnc1C#Cc1ccc(S(N)(=O)=O)cc1` the IC50 [1] was 1.3 µM and the ED50 (Rattus norvegicus) was 76.6 mg/kg.
For `CC(=O)Oc1ccccc1C(=O)O` [ASPIRIN], the ED50 (Rattus norvegicus) was 129 mg/kg.
With `CS(=O)(=O)c1cccc(C#Cc2ccncc2)c1` the IC50 [1] was over 100 µM and the Ratio IC50 (Ovis aries) was over 312.
`NS(=O)(=O)c1ccc(C#Cc2ccncc2)cc1` was tested, and the IC50 [1] was 3.9 µM.
`CS(=O)(=O)c1ccc(C#Cc2cccnc2)cc1` gave an IC50 [1] of 3.2 µM and an ED50 (Rattus norvegicus) of 59.9 mg/kg.
`CS(=O)(=O)c1ccccc1C#Cc1ccncc1` showed an IC50 [1] of 0.26 µM.
Molecule `CS(=O)(=O)c1cccc(C#Cc2cccnc2)c1` has an IC50 [1] of over 100 µM and a Ratio IC50 (Ovis aries) of over 3.1.
